From patent US20180353445A1, “METHODS AND COMPOSITIONS RELATING TO PROTEASOME INHIBITOR RESISTANCE” (Whitehead Institute for Biomedical Research, priority 2017, published 2018)
Residues, ends and D or L forms follow the SMILES beside them. *: point of attachment. Cbz = O=C(OCc1ccccc1)*

Key:
cancer cell lines (GDSC) = assay: Genomics of Drug Sensitivity in Cancer (GDSC) data analysis, IC50 of bortezomib and MG132 vs 19S expression / sigma score; type: cell-based, human; details: GDSC database
Source text: In some aspects, whether a cancer cell is considered resistant or sensitive to a particular agent may be determined by comparing the IC50 of the agent for the cancer cell with the IC50 of the agent as measured for each cell line in a panel of diverse cancer cell lines. Cancer cells for which the agent has an IC50 in the 10th percentile of IC50 values determined for the agent on a diverse panel of cancer cell lines may be considered sensitive, while cancer cells for which the agent has an IC50 in the 90th percentile of IC50 values determined for the agent on a diverse panel of cancer cell lines may be considered resistant to the agent.
We asked if this might correlate with changes in 19S subunit expression. We analyzed the Genomics of Drug Sensitivity in Cancer (GDSC) database, a public resource of transcriptional data and drug responsiveness collected from a spectrum of human cancer cell lines with diverse tissue origins and diverse oncogenic lesions (Garnett et al., 2012). […]
Further details of methods used in GDSC dataset analysis: Gene expression and drug sensitivity data was downloaded from the World Wide Web at subdomain cancerrxgene.org. […] For each proteasomal subunit gene, a-score was calculated for each cell line. […] P-values were calculated by t-test, comparing the logEC50s between the 3 sigma and not 3 sigma.

Saccharomyces cerevisiae = assay: Yeast MG132 sensitivity assay, proteasome subunit DAmP strains; type: cell-based; details: five of twelve strains, 50 μM
Method: FIG. 7: Reducing the levels of 19S subunits is an evolutionarily conserved mechanism to acquire resistance to proteasome inhibition.
As the 19S regulatory complex components are essential for viability in yeast, we utilized a library of hypomorphic (DAmP) alleles for essential yeast genes. In this library, the expression of individual mRNA. species is reduced from two to ten-fold by replacing the mRNA's 3′ untranslated region (Breslow et al., 2008).
Yeast cells were grown over night in media containing L-proline as nitrogen source instead of ammonium sulfate. The overnight cultures were diluted into OD 0.1 and were grown in the L-proline culture with 0.003% SDS with or without 50 μM MG-132. OD was measured over the period of 48 hours.

T47D cells [1] = assay: Cell viability, T47D cells with doxycycline-inducible PSMD2 shRNA (KD) vs control; type: cell-based, human; details: doxycycline-regulated PSMD2 shRNA
cancer cells = assay: Cell viability, elesclomol and elesclomol analogs (cell titer-glo); type: cell-based; details: substitution of oxygen for sulfur group(s)
Source text: In addition to the intrinsic sensitivity of certain cancer cells to elesclomol, as our drug screen indicated, the sensitivity of cancer cells to elesclomol can be further enhanced by forcing them into a Hi-OXPHOS state.
We examined several elesclomol analogs (FIG. 57B) to determine the structural features that are important for mediating its cytotoxicity. […] Substitution of oxygen for even one of the sulfur groups (compound-5) reduced the activity of elesclomol by 300 fold. The loss of activity was even more pronounced (>>300 fold) when both sulfurs were substituted (compound-6) (FIGS. 51C-51D, FIG. 57C). Various other modifications to the elesclomol scaffold were tolerated, as long as the core sulfur geometry remained intact.
(§1) Cell viability—where indicated relative cell number following different drug treatment was conducted by plating cells at 1000 cells/well in 384 well plates. Indicated concentrations of compounds were added 24 hour after plating at least in triplicate for each condition. Viability was measured 72 hours after drug addition using cell titer-glo (Promega) according to manufactures protocol. […]

T47D cells [2] = assay: The glucose/galactose drug screen; type: cell-based, human; details: 10 mM Glucose or Galactose, Selleck anti cancer and natural product libraries
MCF7 and HEK293 cells = assay: Cell viability with glucose or galactose as the carbon source; type: cell-based, human; details: 10 mM glucose or 10 mM galactose
Method: Cells were treated with increasing concentrations of elesclomol in the presence of either Glucose or Galactose as the carbon source (FIG. 40A). The presence of Galactose will induce a mitochondrial dependent metabolism (FIGS. 40B-40C, Gohil et al., Nature Biotechnology 28, 249-255 (2010)).
The sensitivity of cells to different chemical isoforms of elesclomol was also assessed. […] Removing even one substantially impairs the ability of the molecule to induce toxicity (FIG. 41B).
Cell culture methods—147D, Lo19S T47D, K562 and 293T-HS cells were cultured in RPMI-1640 medium supplemented with 10% fetal bovine serum; HEK293, HEK293T and MCF-7 cells were cultured in Dulbecco's modified Eagle's medium supplemented with 10% fetal bovine serum. For the glucose, galactose experiments media lacking glucose was supplemented with dialyzed serum and either 10 mM Glucose or 10 mM galactose.
as §1

Compound: CC(C)C[C@@H](C=O)NC(=O)[C@H](CC(C)C)NC(=O)[C@H](CC(C)C)NC(=O)OCc1ccccc1 [MG132, N-(benzyloxycathonyl)leucinylieucinylieucinal] (Cbz-Leu-Leu-Leu-aldehyde)
- average IC50 value in 3-Sigma cell lines vs all other lines (cancer cell lines (GDSC)): considerably higher
- resistance of 19S DAmP yeast strains to proteasome inhibition (Saccharomyces cerevisiae): significantly increased resistance
- resistance after transient reduction of PSMD2 (T47D cells [1]): significantly increased resistance

Compound: CN(NC(=O)CC(=O)NN(C)C(=S)c1ccccc1)C(=O)c1ccccc1 [compound-5]
- reduction of activity relative to elesclomol (cancer cells): 300 fold

Compound: antimycin A
- relative viability change of cells grown in glucose versus galactose (T47D cells [2]): increased sensitivity
- sensitivity of cells in galactose (mitochondrial metabolism, Hi-OXPHOS) versus glucose (glycolytic) (MCF7 and HEK293 cells): This phenomenon is observed
